Measured values published in patent US5087702A, “Microbial transformation process for producing an antihypertensive product” (Merck & Co., Inc., priority 1991, dated 1992).

Molecular target: T1, Angiotensin II (A II) receptor (Oryctolagus cuniculus, UniProt P34976)
T1 construct: membrane preparation derived from rabbit aortae; tissue Pel-Freeze Biologicals; host or cells: frozen rabbit aortae, membrane preparation
T1 sequence (P34976 1-359): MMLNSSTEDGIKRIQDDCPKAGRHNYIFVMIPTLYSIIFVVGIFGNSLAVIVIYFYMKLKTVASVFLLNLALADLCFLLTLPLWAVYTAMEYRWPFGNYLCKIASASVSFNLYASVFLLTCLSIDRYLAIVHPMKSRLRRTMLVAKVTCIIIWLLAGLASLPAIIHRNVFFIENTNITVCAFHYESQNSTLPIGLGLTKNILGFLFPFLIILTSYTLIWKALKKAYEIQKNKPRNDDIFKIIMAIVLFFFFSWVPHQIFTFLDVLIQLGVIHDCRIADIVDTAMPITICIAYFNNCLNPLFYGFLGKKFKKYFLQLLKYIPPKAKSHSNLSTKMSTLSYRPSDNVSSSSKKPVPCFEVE
Assay: Receptor binding assay using rabbit aortae membrane preparation (displacement of 125I-Sar1Ile8-angiotensin II; the "IC50" assay)
Details: membrane preparation derived from rabbit aortae; 37° C., 90 minutes; read-out: inhibitory concentration (IC50) giving 50% displacement of the total specifically bound 125I-Sar1 Ile8-angiotensin II
Description: This assay is also referred to herein as the "IC50 " assay.
RECEPTOR BINDING ASSAY USING RABBIT AORTAE MEMBRANE PREPARATION
Three frozen rabbit aortae (obtained from Pel-Freeze Biologicals) were suspended in 5 mM Tris-0.25M Sucrose, pH 7.4 buffer (50 ml) homogenized, and then centifuged. The mixture was filtered through a cheesecloth and the supernatant was centrifuged for 30 minutes at 20,000 rpm at 4° C. The pellet thus obtained was resuspended in 30 ml of 50 mM Tris-5 mM MgCl2 buffer containing 0.2% Bovine Serum Albumin and 0.2 mg/ml Bacitration and the suspension was used for 100 assay tubes. Samples tested for screening were done in duplicate. To the membrane preparation (0.25 ml) there was added ^125 I-Sar^1 Ile^8 -angiotensin II [obtained from New England Nuclear] (10 ul; 20,000 cpm) with or without the test sample and the mixture was incubated at 37° C. for 90 minutes. The mixture was then diluted with ice-cold 50 mM Tris-0.9% NaCl, pH 7.4 (4 ml) and filtered through a glass fiber filter (GF/B Whatman 2.4" diameter). The filter was soaked in scintillation cocktail (10 ml) and counted for radioactivity using Packard 2660 Tricarb liquid scintillation counter. […]

IC50: < 50 µM
Structure (SMILES): CCCc1nc2c(C)ccnc2n1Cc1ccc(-c2ccccc2-c2nnnn2CC2=CC(O)C(O)C(O)C2=O)cc1 (stereo not shown) [Compound I]
